How the values were obtained:
[1] = (§1) The drug is tested on Z-017 corresponding to mouse gut metagenome with ENA study accession number: PRJEB37062 and ENA sample accession number: ERS12561816 for biotransformation under anaerobic condition. The drug concentrations were measured over 9 timepoints collected between 0 and 24 hours of incubation by liquid-chromatography-coupled mass spectrometry (LC–MS); conditions: 2 µM
[2] = human gut metagenome, 24 h, 2 µM
[3] = as §1, with “Z-012” for “Z-017”, “to” for “to mouse gut”, “ERS12561812” for “ERS12561816”; conditions: 2 µM
[4] = as §1, with “WLS-098” for “Z-017”, “human” for “mouse”, “ERS12561754” for “ERS12561816”; conditions: 2 µM
[5] = human gut metagenome, 24 h, 2 µM; remark: listed apart in the source
[6] = as §1, with “WLS-077” for “Z-017”, “human” for “mouse”, “ERS12561750” for “ERS12561816”; conditions: 2 µM
[7] = as §1, with “Z-018” for “Z-017”, “pig” for “mouse”, “ERS12561817” for “ERS12561816”; conditions: 2 µM
[8] = human gut metagenome, 24 h, 2 µM; remark: listed apart in the source
[9] = as §1, with “WLS-007” for “Z-017”, “human” for “mouse”, “ERS12561742” for “ERS12561816”; conditions: 2 µM
[10] = as §1, with “Z-006” for “Z-017”, “ERS12561806” for “ERS12561816”; conditions: 2 µM
[11] = as §1, with “Z-025” for “Z-017”, “rabbit” for “mouse”, “ERS12561824” for “ERS12561816”; conditions: 2 µM
[12] = human gut metagenome, 24 h, 2 µM; remark: listed apart in the source
[13] = as §1, with “Z-021” for “Z-017”, “to” for “to mouse gut”, “ERS12561820” for “ERS12561816”; conditions: 2 µM
[14] = human gut metagenome, 24 h, 2 µM; remark: listed apart in the source
[15] = as §1, with “Z-013” for “Z-017”, “rabbit” for “mouse”, “ERS12561813” for “ERS12561816”; conditions: 2 µM
[16] = human gut metagenome, 24 h, 2 µM; remark: listed apart in the source
[17] = human gut metagenome, 24 h, 2 µM; remark: listed apart in the source
[18] = human gut metagenome, 24 h, 2 µM; remark: listed apart in the source
[19] = as §1, with “Z-008” for “Z-017”, “to” for “to mouse gut”, “ERS12561808” for “ERS12561816”; conditions: 2 µM
[20] = human gut metagenome, 24 h, 2 µM; remark: listed apart in the source
Note: call rule not given here.

Row | SMILES | Bacterial Biotransformation [1] | Bacterial Biotransformation [2] | Bacterial Biotransformation [3] | Bacterial Biotransformation [4] | Bacterial Biotransformation [5] | Bacterial Biotransformation [6] | Bacterial Biotransformation [7] | Bacterial Biotransformation [8] | Bacterial Biotransformation [9] | Bacterial Biotransformation [10] | Bacterial Biotransformation [11] | Bacterial Biotransformation [12] | Bacterial Biotransformation [13] | Bacterial Biotransformation [14] | Bacterial Biotransformation [15] | Bacterial Biotransformation [16] | Bacterial Biotransformation [17] | Bacterial Biotransformation [18] | Bacterial Biotransformation [19] | Bacterial Biotransformation [20]
1 | Cc1ccnc2c1NC(=O)c1cccnc1N2C1CC1 [NEVIRAPINE] | Compound NOT metabolized | Compound metabolized | Compound NOT metabolized | Compound metabolized | Compound metabolized | Compound NOT metabolized | Compound NOT metabolized | Compound NOT metabolized | Compound metabolized | Compound NOT metabolized | Compound NOT metabolized | Compound metabolized | Compound NOT metabolized | Compound NOT metabolized | Compound NOT metabolized | Compound metabolized | Compound NOT metabolized | Compound NOT metabolized | Compound NOT metabolized | Compound NOT metabolized
2 | CCN(CC)C(C)CN1c2ccccc2Sc2ccccc21 (stereo not given) [ETHOPROPAZINE] | Compound NOT metabolized | Compound metabolized | Compound metabolized | Compound metabolized | Compound metabolized | Compound metabolized | Compound metabolized | Compound metabolized | Compound metabolized | Compound NOT metabolized | Compound NOT metabolized | Compound metabolized | Compound metabolized | Compound NOT metabolized | Compound NOT metabolized | Compound metabolized | Compound metabolized | Compound metabolized | Compound NOT metabolized | Compound metabolized
3 | COc1cc2nc(N(C)CCCNC(=O)C3CCCO3)nc(N)c2cc1OC (stereo not given) [ALFUZOSIN] | Compound NOT metabolized | Compound metabolized | Compound NOT metabolized | Compound metabolized | Compound metabolized | Compound NOT metabolized | Compound metabolized | Compound NOT metabolized | Compound metabolized | Compound NOT metabolized | Compound NOT metabolized | Compound metabolized | Compound NOT metabolized | Compound metabolized | Compound NOT metabolized | Compound metabolized | Compound metabolized | Compound NOT metabolized | Compound NOT metabolized | Compound NOT metabolized
4 | COc1ccccc1OCC(O)COC(N)=O (stereo not given) [METHOCARBAMOL] | Compound NOT metabolized | Compound NOT metabolized | Compound NOT metabolized | Compound NOT metabolized | Compound NOT metabolized | Compound NOT metabolized | Compound NOT metabolized | Compound NOT metabolized | Compound NOT metabolized | Compound NOT metabolized | Compound NOT metabolized | Compound NOT metabolized | Compound NOT metabolized | Compound NOT metabolized | Compound NOT metabolized | Compound NOT metabolized | Compound NOT metabolized | Compound NOT metabolized | Compound NOT metabolized | Compound NOT metabolized

From ChEMBL document CHEMBL5724914, “Linking interpersonal differences in gut microbiota composition and drug biotransformation activity” (2024)
